The source of these data is PubChem BioAssay (NCI).

What all share (assay): inhibition of tumour cell growth, NCI panel, 48 h
Assay [1] concerns HOP-92 NSCLC.
Assay [2] relates to COLO 205 colon.
The subject of assay [3] is CCRF-CEM leukemia.
Assay [4] has as its system HL-60(TB) leukemia.
In assay [5] the test system is SK-OV-3 ovarian.
Assay [6] has as its system NCI/ADR-RES ovarian.
Assay [7] concerns T-47D breast.
Assay [8] has as its system SF-268 CNS.
For assay [9], the system named is A498 renal.
The test system of assay [10] is SR leukemia.
The test system of assay [11] is SW-620 colon.
For assay [12], the system named is DU-145 prostate.
The subject of assay [13] is HOP-62 NSCLC.
Assay [14] concerns MOLT-4 leukemia.
Assay [15] relates to NCI-H522 lung.
Assay [16] deals with RXF 393 renal.
For assay [17], the system named is NCI-H460 lung.
Assay [18] relates to LOX IMVI melanoma.

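Results reflect a 48-hour exposure of cells in 96-well plates to compound at five concentrations. TGI is the concentration that stops growth completely.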

For `CCOP(C)(=O)C(Cc1c[nH]c2ccccc12)C(=O)O` (stereo not given), the TGI in [1], in assay [2], in assay [3], in assay [4], in assay [5] and in [6] was more than 100 µM throughout. Further, the TGI in assay [7], in assay [8], in assay [9], in assay [10], in [11] and in assay [12] was more than 100 µM in each case. Besides, the TGI in [13], in assay [14] and in [15] was more than 100 µM each time.
For the compound `CC(C)(C)OC(=O)N(O)[C@@H]1C=C[C@H](n2cnc3c(N)ncnc32)C1`, the TGI in [1], in assay [2], in assay [3], in assay [5], in assay [16] and in assay [6] was more than 100 µM throughout. In addition, the TGI in assay [7], in assay [8], in assay [9], in assay [10], in [17] and in assay [18] was more than 100 µM throughout. Further, the TGI in [11], in assay [12], in assay [13], in assay [14] and in assay [15] was more than 100 µM throughout.
For the compound `Cc1ccc(S(=O)(=O)N2CC3OC(C)(C)OC3C2CO)cc1` (stereo not given), the TGI in [1], in assay [2], in assay [3], in assay [5], in assay [16] and in [6] was more than 100 µM each time. The TGI in assay [7], in [8], in [9], in [10], in assay [17] and in [11] was more than 100 µM in each case. In addition, the TGI in assay [12], in assay [13], in assay [14] and in assay [15] was more than 100 µM each time.
Take `Cc1ccc(/C(O)=C/c2nc3ccccc3oc2=O)cc1`: the TGI in assay [2], in assay [3], in [16], in assay [6], in assay [7] and in assay [8] was more than 100 µM each time. Also, the TGI in assay [9], in assay [10], in [17], in [12], in [13] and in [14] was more than 100 µM in each case. In addition, in [15], the TGI worked out at 90.1 µM.
For `Cc1cc(C)nc(NS(=O)(=O)c2ccc(Nc3nncc(=O)n3N)cc2)n1`, the TGI in assay [2] is more than 100 µM; in assay [3] it was 11.6 µM; in assay [4], 40.2 µM; in [5], more than 100 µM; in assay [6], 55.9 µM; in assay [7], 38.3 µM. In addition, the TGI was 39.7 µM in assay [8]; more than 100 µM in assay [9]; 42.4 µM in assay [10]; more than 100 µM in assay [17]; 27.7 µM in assay [18]; 44.2 µM in [11]. Moreover, the TGI was more than 100 µM in [12], 34.7 µM in assay [13], 48.6 µM in assay [14] and 26.2 µM in assay [15].
In the case of `CC1CN=C(Nc2ccc(F)cc2F)S1` (stereo not given), the TGI in assay [1], in assay [2], in assay [3], in assay [4], in assay [5] and in assay [6] was more than 100 µM in each case. In addition, the TGI in assay [7], in [8], in assay [9], in assay [10], in [17] and in [18] was more than 100 µM throughout. Further, the TGI in [11], in assay [12], in [13] and in [14] was more than 100 µM in each case.
In the case of `CC1=NN(c2nc(N)nc(CCl)n2)CC1`, the TGI in assay [1] was 38.7 µM; in [2] it was 36.3 µM; in [3], 43.3 µM; in assay [4] it was 40 µM; in [5], more than 100 µM; in assay [16] it was more than 100 µM. The TGI in assay [6] was 74.1 µM; in assay [7], more than 100 µM; in [8] it was more than 100 µM; in assay [9], more than 100 µM; in [10] it was 61.7 µM; in assay [17], 48.8 µM. For the same compound, the TGI was 76.4 µM in assay [11]; more than 100 µM in assay [12]; 29.4 µM in assay [13]; 68.9 µM in assay [14]; 4.91 µM in [15].
`Cc1ccc2c(c1)C(=O)/C(=C\c1ccccc1)CCS2(=O)=O`: the TGI is more than 56.9 µM in assay [1]; 42 µM in [2]; 60.8 µM in [5]; more than 52.2 µM in assay [6]; 49.6 µM in assay [7]; more than 68.7 µM in assay [8]. The TGI in [9] was 52.1 µM; in assay [10] it was more than 24.7 µM; in assay [17], 24.9 µM; in assay [18], 44.3 µM; in [11], 73.5 µM; in assay [12], 21.8 µM. The results for the TGI in assay [13], in assay [14] and in [15] were more than 86 µM, 87.5 µM and 14.6 µM, respectively.
